Experimental data published in US12594271B2, “Combination therapy for cancer” (Health Research, Inc., priority 2019, dated 2026).
Entries after “also recorded” stand apart in the source; their conditions may differ.

Assays:
4T1 tumors cells = test: 4T1 orthotopic mammary tumor model: tumor growth and spontaneous lung metastases; type: in vivo, mice; conditions: BRQ 10 mg/kg i.p. daily
Method: FIG. 1. […] (A) 4T1 growth in mice treated daily with BRQ (10 mg/kg, i.p.), anti-PD-1 ([…], i.p. at the indicated 3 or 4 times) or both agents. n=5 mice/group/experiment for upper and lower graphs; *P<0.01 against single-agent treatments. B-D, data shown are for analysis of A, upper graph. (B) Spontaneous metastatic lung counts; *P<0.01. Similar patterns seen in the 2nd experiment (avg. #mets): vehicle=12; BRQ=1; αPD-1=5; combo=1. (C) Splenic granulocytic (CD11b^+Ly6C^loLy6G^+) or monocytic (CD11b^+Ly6C^hiLy6G^−) numbers in non-tumor-bearing (NTB) or tumor-bearing mice were converted to a ratio for group-by-group comparison; *P<0.03. (D) Splenic CD3^+ T cell numbers in tumor-bearing mice. (E) Splenic CD8^+ T cells in A (lower graph) were assayed based on differential expression of CD44:naïve ([…]) vs. effector/central memory (hi) phenotypes. *P<0.03. Data reported as a ratio to indicate a rising memory pool. […]
Treatment of Tumor-Bearing Mice Alters Surface Phenotype of Myeloid Cells. […] Female BALB/c or C57BL/6 mice were orthotopically implanted with 4T1 or AT-3 mammary tumor cells, respectively, and were monitored 3 times weekly for tumor growth. […]
Effect of Treatment of Tumor-Bearing Mice with BRQ on the Efficacy of Anti-Tumor Immunotherapy. […] At endpoint, BM cells or spleens were collected and analyzed for the indicated populations by flow cytometry. […]

[1] = test system: myeloid cells and T cells of 4T1 tumor-bearing mice; test: Flow cytometry of spleen, bone marrow and tumor cells from 4T1 tumor-bearing mice; type: in vivo
Method: FIG. 1. […] (A) 4T1 growth in mice treated daily with BRQ (10 mg/kg, i.p.), anti-PD-1 ([…], i.p. at the indicated 3 or 4 times) or both agents. n=5 mice/group/experiment for upper and lower graphs; *P<0.01 against single-agent treatments. B-D, data shown are for analysis of A, upper graph. (B) Spontaneous metastatic lung counts; *P<0.01. Similar patterns seen in the 2nd experiment (avg. #mets): vehicle=12; BRQ=1; αPD-1=5; combo=1. (C) Splenic granulocytic (CD11b^+Ly6C^loLy6G^+) or monocytic (CD11b^+Ly6C^hiLy6G^−) numbers in non-tumor-bearing (NTB) or tumor-bearing mice were converted to a ratio for group-by-group comparison; *P<0.03. (D) Splenic CD3^+ T cell numbers in tumor-bearing mice. (E) Splenic CD8^+ T cells in A (lower graph) were assayed based on differential expression of CD44:naïve ([…]) vs. effector/central memory (hi) phenotypes. *P<0.03. Data reported as a ratio to indicate a rising memory pool. Data in B-E are at endpoint; ns, not significant.
(§1) Treatment of Tumor-Bearing Mice Alters Surface Phenotype of Myeloid Cells. […] Female BALB/c or C57BL/6 mice were orthotopically implanted with 4T1 or AT-3 mammary tumor cells, respectively, and were monitored 3 times weekly for tumor growth. When tumors became measurable (indicated by the arrow), BRQ was administered daily (10 mg/kg intraperitoneally), and at endpoint the BM cells or spleens were collected for flow cytometric analysis for the expression (i.e., percentage or MFI value) of the indicated cell surface markers (FIGS. 13-15). We extended our in vitro studies with BRQ to […] to determine the impact of BRQ on MDSC maturation. To that end, mice bearing orthotopically implanted mammary tumors were treated with or without BRQ in vivo using a similarly previously reported dose, frequency and schedule (Sykes et al. Cell 167:171-186, 2016). The first tumor model chosen was 4T1, which is an aggressive mammary tumor cell line that induces a robust MDSC response largely comprised of PMN-MDSCs.
The upper panels of FIG. 14 are representative flow cytometry plots of the non-tumor-bearing (NTB) or tumor-bearing cohorts without (vehicle) or with BRQ. The middle panel histogram represents CD101 expression on the gated (boxed) populations of the upper panels. In this case, the far-right histograms refer to the gated-boxed right dot plot (for the PMN or granulocytic subset), whereas the gated-boxed left histogram refers to the gated-boxed upper left dot plot (for the monocytic subset). […] FIG. 15 refers to the quantification of the CD101 data from non-tumor-bearing mice or tumor-bearing mice with or without BRQ, based on both the CD101 MFI values and the percentages of CD101^+ (or high-expressing) cells reflecting the monocytic subset (upper left histogram and middle left table) or the PMN-MDSC subset (upper right histogram and middle right table). The quantification appears in the lower left and right graphs. Each point represents an individual mouse.
Effect of Treatment of Tumor-Bearing Mice with BRQ on the Efficacy of Anti-Tumor Immunotherapy. […] At endpoint, BM cells or spleens were collected and analyzed for the indicated populations by flow cytometry. These experiments sought to determine whether BRQ can act in the bone marrow environment. […] The frequency of these cells approached levels seen in the non-tumor-bearing controls. […] Moreover, analysis of the systemic impact of BRQ on T cell numbers and their activation/memory state was performed on splenic population at endpoint (FIG. 20). […] This analysis at the time was not performed on cohorts treated with anti-PD-1 mAb alone or the combination, since the intent was to focus on the effect of BRQ on T cell numbers and their phenotypic states.
Treatment of Tumor-Bearing Mice with BRQ Increases the Proliferative Capacity and Activation of Intra-Tumoral T Cells. Experimental design is as described in FIG. 12. […]

IRF8 = test: qRT-PCR in Lin- BM cells cultured 2 days; type: cell-based, mouse; conditions: bone marrow cells cultured with BRQ, normalized to vehicle
Method: (§2) FIG. 2. […] (A) MDSCs were produced in vitro from mouse bone marrow cells using GM-CSF and G-CSF±BRQ (1 μM) or ATRA (10 μM) at the start of the 4-day culture. Cells tested for their ability to inhibit T cell proliferation (1:1 ratio), as in FIG. 5. Fresh BM=Uncultured bone marrow cells. (B) Similar to A, except that uridine (200 μM) was added to rescue the effect of BRQ. (C) Expression of IRF8 (upper) or SLFN4 (lower) was analyzed by qRT-PCR in Lin^− BM cells cultured as in A for 2 days. Data normalized to the vehicle.

SLFN4 = test: qRT-PCR in Lin- BM cells cultured 2 days; type: cell-based, mouse; conditions: bone marrow cells cultured with BRQ, normalized to vehicle
Method: as §2

AT-3 tumor cells = test: AT-3 orthotopic mammary tumor model: tumor growth and splenic flow cytometry; type: in vivo, mice
Method: as §1
Female C57BL/6 mice were orthotopically implanted with AT-3 tumor cells and were monitored 3 times weekly for tumor growth. When tumors became measurable, BRQ was administered daily (10 mg/kg intraperitoneally), and at endpoint the spleens were collected and analyzed by flow cytometry for the indicated cell surface markers. Tumor growth is shown in the upper panel of FIG. 16 while representative flow cytometry data is shown in the lower panel.

[2] = 4T1, BRQ 10 mg/kg i.p. daily, spleen
[3] = 4T1 tumor-bearing mice, endpoint

Cc1c(-c2ccc(-c3ccccc3F)cc2)nc2ccc(F)cc2c1C(=O)O [BRQ, 6-Fluoro-2-(2′-fluoro-[1,1′-biphenyl]-4-yl)-3-methylquinoline-4-carboxylic acid]
Spontaneous metastatic lung counts (avg. #mets) (4T1 tumors cells; 2nd experiment, anti-PD-1 200 μs i.p. 3 or 4 times, endpoint): 1 | 4T1 tumor growth (4T1 tumors cells; BALB/c mice, anti-PD-1 200 μg i.p.): little effect on tumor growth; also recorded: only a nominal effect on primary tumor growth | CD101 expression on splenic granulocytic populations ([1]; 4T1, BRQ 10 mg/kg i.p. daily): significantly increased CD101 expression | accumulation of the granulocytic population in the spleen ([1]; 4T1, BRQ 10 mg/kg i.p. daily): did not significantly alter | Ly6C expression on granulocytic cells [1, 2]: significantly higher expression of the cell surface Ly6C | Ly6G expression on granulocytic cells [1, 2]: trended upward but did not reach statistical significance | tumor-driven expansion of myeloid progenitor populations GMP or GP in bone marrow ([1]; 4T1, endpoint): reduced tumor-driven expansion | accumulation of CD11b+Gr-1+ cells in bone marrow ([1]; 4T1, vs vehicle controls): reduced the accumulation of CD11b^+Gr-1^+ cells | splenic granulocyte to monocyte ratio ([1]; 4T1 tumor-bearing mice vs non-tumor-bearing controls, endpoint): significantly altered the granulocyte to monocyte ratio resembling the non-tumor-bearing controls | splenic CD3+ T cell numbers [1, 3]: did not alter; also recorded: no negative effect | splenic CD8+ T cell memory populations (ratio of memory to naïve T cells by CD44) [1, 3]: did not alter; also recorded: no negative effect | CD44 expression on intratumoral CD8+ and CD4+ T cells ([1]; tumor tissue at endpoint): Increases in CD44 expression were similarly observed | proliferative capacity of intratumoral CD8+ and CD4+ T cells (percentages of Ki-67+ cells) ([1]; tumor tissue at endpoint): significant increases in the proliferative capacity | IRF8 expression (IRF8): increase in IRF8 expression | SLFN4 expression (SLFN4): reciprocal decrease in SLFN4 expression | Ly6C expression on the granulocytic (PMN-MDSC) subset (AT-3 tumor cells; AT-3-bearing mice, spleen): significantly increased the expression of Ly6C | Ly6C or Ly6G expression on the monocytic subset (AT-3 tumor cells; AT-3-bearing mice, spleen): no significant changes | Ly6G expression on the surface of granulocytes (AT-3 tumor cells; AT-3-bearing mice, spleen): increased the expression of Ly6G | AT-3 tumor growth (AT-3 tumor cells; C57BL/6 mice, BRQ 10 mg/kg i.p. daily): minimal effects on inhibiting tumor growth
